{
  "source": "patent US9175077B2",
  "about": "“Nucleic acids encoding biologically active polypeptides derived from a novel early stage pregnancy factor designated maternin (MA)” (NOBEL BIOSCIENCES LLC, priority 1999, dated 2015)",
  "key": {"[1]": {"test_system": "spontaneous breast carcinomas", "experiment": "Spontaneous breast carcinomas in Sprague-Dawley rats", "format": "in vivo", "settings": "2 weeks of therapy", "text": "As shown, MA killed a wide variety of human tumor cells in vitro and in vivo killed xenotransplanted human tumors in immune deficient mice. We wanted to be certain that the in vivo results would not be limited to immune deficient mice. […] Therefore, we tested the effects of MA on: • spontaneous fibrosarcomas which developed in three older FVB/N mice; and • spontaneous breast carcinomas which developed in three older Sprague-Dawley rats.\nSimilar results were obtained with the spontaneous mammary carcinomas of rats."}, "Acutely bled rats": {"experiment": "Acutely bled rats", "format": "in vivo, Sprague-Dawley rats", "settings": "i.p. 24 and 48 hrs after 35-40% blood loss", "text": "To delineate the effects of MA on hematopoiesis in the absence of any external bone marrow suppression, blood (35-40% of total blood volume) was removed from five Sprague-Dawley rats by intracardiac puncture. […] Each panel illustrates the mean values for the three animals treated with MAS1. Thus, MA and related derivatives have potent pro-hematopoietic effects."}, "HIV-1 gene expression": {"test_system": "HIV-1 gene expression", "experiment": "HIV-1 transgenic mice, pups feeding from treated mothers", "format": "in vivo", "settings": "for survival / development of pups (qualitative): mothers treated, pups breast fed", "text": "The transgenic mice contain 5.1 kb of the HIV-1 proviral genome, lacking gag and pol genes and 2.3 kb of vector.^172 The newly developed transgenic rat contains the same HIV-1 sequences and vector.\nTwenty-four hours after birth the mothers were either inoculated subcutaneously daily for 10 days or received an implanted osmotic pump delivering 30-150 pmoles of either native or synthetic MA or pMA. Various control polypeptides were used at equimolar or vast molar excess. The newborn pups were then allowed to feed from the foster mother breast milk over the entire period. Since the animals are at risk from needle inoculation, breastfeeding was the chosen route for MA administration.\nIn these experiments total RNA was extracted from samples of skin RNA206 10 days after birth of MA treated and untreated mice. One ug of RNA was reverse transcribed into cDNA using random hexamer primer and […] reverse transcriptase (Life Technologies, Inc.) in a final vol. Of 30 ul. Three ul of each reaction was used for PCR amplification of the HIV-1 gene sequences (env, tat, nef, and rev) as described […], and glyceraldehyde 3-phosphate dehydrogenase (GAPDH) was amplified from each sample for normalization. After 25 cycles, 10% of the products were resolved by electrophoresis on 2% agarose gels, transferred to nitrocellulose membranes by Southern blotting, and hybridized to fluorescein isthiocyanate-labeled oligonucleotide probes complementary to internal sequences of the amplicons […]. Bound probes were detected by chemiluminescence (Amersham) and relative mRNA levels determined by densitrometry after normalization with GAPDH mRNA levels."}, "HIV-1": {"test_system": "HIV-1", "method": "Virus (MOI of 0.001) was added to 10^6 cells in RPMI-1640 with 10% FCS. One hour later the various polypeptides were added once. The cells cultured for 3 days with 5 ug PHA and 20 i.m. of II-2/ml at 37°, after which virus was estimated by determining p24 (HIV-1) or p27 (SIV) (Organon-Teknika).\nThe effect of native and synthetic MA on HIV-1 infection in vitro was evaluated using PHA and II-2 stimulated primary peripheral blood cells (PBMC), CD4+ T-cells enriched fractions from PBMC, and CD14+ macrophage enriched fractions. Infection was with HIV-1 IIIB (PBMC and CD4+ T-cells), HIV-1 Ba-L (macrophages), and two primary HIV-1 isolates not passaged in any cell line (PBMC)."}, "[2]": {"test_system": "primary human tumor cells", "experiment": "Short-term cultured primary human tumor cells, growth and apoptosis", "format": "cell-based", "settings": "200 ng/ml; 3 days culture; 10% serum", "text": "Because cell lines might be more susceptible to growth inhibition and apoptosis, the effects of MA on short-term cultured human tumor cells were investigated. The cells were obtained from biopsied specimens and immediately cultured (primary cultures). The results were similar to the results with tumor cell lines. […] FIG. 3, Panels A and B are representative results with primary breast and prostate carcinomas respectively. These pro-apoptotic effects of MA on human tumor cells were with 10% serum rather than the lower concentrations sometimes used to make cells more susceptible to apoptosis.\nMore extensive studies of primary human tumor cells were carried out utilizing confocal microscopy.\nWith the exception of the kidney carcinoma, which was a biopsy sample direct from the tumor, the samples were from pleural effusions which developed after metastasis to the lung. The breast, prostate, and colon carcinomas were freshly obtained and immediately cultured, whereas the lung and kidney carcinomas went through 22 and 18 passes respectively before they were used in these studies. All cells were examined after 3 days culture in the presence or absence of MA (200 ng/ml) or other treatments. […]"}, "[3]": {"experiment": "Toxicity in animal studies", "format": "in vivo, rats, mice", "settings": "incl. rhesus macaques 0.2 mg/kg for several months", "method": "These cells included human, primate, and rodent bone marrow, PBMCs, and human CD4+ T-cells, CD8+ T-cells, CD34+ cells, and macrophages enriched from normal PBMCs, as well as normal human endothelial cells and fibroblasts. Cytotoxicity was assessed by 3H-thymidine incorporation, trypan blue staining, cell numbers, and morphological examination by light and confocal microscopy. Hematopoiesis was not only unimpaired it was promoted. […] These studies were chiefly performed with rats and mice, but also included rhesus macaques treated with 0.2 mg/kg for several months. Like the in vitro results, hematopoiesis was not impaired but instead enhanced."}, "[4]": {"experiment": "Lethal dose taxol in Sprague-Dawley rats", "format": "in vivo", "method": "Sprague-Dawley rats were given taxol in large lethal doses, 4.5 mg in one I.P. inoculation. […] Bone marrow suppression can also be a side effect of the clinical use of taxol.^179 As in the radiation experiments, either MA, pMA, MAS1, or various polypeptide controls were given subcutaneously only in two doses 24 and 48 hrs before taxol treatment or were given 3×/week for 4 weeks. […]"}},
  "note": "Entries after “also recorded” stand apart in the source; their conditions may differ.",
  "data": [
    {"sequence": "VVCNYRDVRFESIRLPGCPRGVNPVVSYAVALSCQ [MA]", "values": [
      {"measurement": "tumor outcome", "setting": "[1]", "value": "complete tumor regression; also recorded: partial tumor regression"},
      {"measurement": "recovery of peripheral blood cells", "setting": "Acutely bled rats", "value": "prompt recovery"},
      {"measurement": "weight over the ten day period", "setting": "HIV-1 gene expression; 30-150 pmoles", "value": "quadrupled their weight"},
      {"measurement": "animals that eventually died", "setting": "HIV-1 gene expression; low dose (30 pmoles), after 2 mos", "value": "about 50%"},
      {"measurement": "survival / development of pups (qualitative)", "setting": "HIV-1 gene expression", "value": "survived"},
      {"measurement": "survival / development of pups (qualitative)", "setting": "HIV-1 gene expression; listed as native MA", "value": "normal development"},
      {"measurement": "HIV-1 viral expression in tissues", "setting": "HIV-1 gene expression; mouse, in vivo", "value": "marked inhibition of viral expression"},
      {"measurement": "inhibition of primary HIV-1 isolates in PBMCs", "setting": "HIV-1", "value": "inhibited replication"},
      {"measurement": "IC50", "setting": "HIV-1; read-out: concentration at which virus production was inhibited 50%, IIIB and Ba-L, p24 in extracellular fluid", "value": "~30", "unit": "nM"},
      {"measurement": "growth inhibition and apoptosis of primary human tumor cells", "setting": "[2]", "value": "inhibited growth and induced apoptosis; also recorded: Rapid induction of apoptosis"},
      {"measurement": "toxic side effects grossly or by blood counts", "setting": "[3]", "value": "no evident toxic side effects"},
      {"measurement": "survival of pretreated animals", "setting": "[4]; low dose, two doses 24 and 48 hrs before taxol", "value": "Sixty-percent"},
      {"measurement": "survival maintained to day 80", "setting": "[4]; therapy maintained 28 days, high dose (1000 ng)", "value": "~80", "unit": "%"},
      {"measurement": "survival maintained to day 80", "setting": "[4]; therapy maintained 28 days, low dose (100 ng)", "value": "about 60%"},
      {"measurement": "survival on day 5", "setting": "[4]; therapy maintained 28 days, low or high dose", "value": 100, "unit": "%"}
    ]}
  ]
}
